Results reported in the NIST ThermoML archive (doi:10.1016/j.jct.2014.12.004).
Numbers after ± are expanded uncertainties.

Conditions: Crystal; DTA

Normal melting temperature [°C] | SMILES
259.1 ± 0.4 | O=c1c2ccccc2nc2n1CCc1c-2[nH]c2ccccc12 [Rutecarpine]
275.1 ± 0.4 | CN1c2ccccc2C(=O)N2CCc3c([nH]c4ccccc34)[C@H]21 [evodiamine]
